From BindingDB's records for doi:10.1111/cbdd.12713 (Novartis Institutes of Biomedical Research Institute, 2016)

molecular target: T1, Aquaporin-1 (Homo sapiens, UniProt P29972); experiment: Stopped-flow Assay
T1 sequence (P29972 whole entry): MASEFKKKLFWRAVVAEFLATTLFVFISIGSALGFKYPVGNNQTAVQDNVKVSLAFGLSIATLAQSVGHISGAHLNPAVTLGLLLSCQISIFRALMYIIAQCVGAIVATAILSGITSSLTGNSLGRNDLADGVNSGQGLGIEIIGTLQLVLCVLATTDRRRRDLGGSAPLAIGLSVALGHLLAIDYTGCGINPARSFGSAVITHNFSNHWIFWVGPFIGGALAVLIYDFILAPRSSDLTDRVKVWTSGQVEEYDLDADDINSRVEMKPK
Method: Osmotic water permeability was measured at 22-24 °C bymonitoring 90° scattered light intensity at 520 nm wavelength. Measurements were made using a PiStar 180 (Applied Photophysics, UK), with a dead time of 1-2 milliseconds. Thirty minutes prior to the assay, stripped red blood cell ghosts or proteoliposomes containing purified AQP1 and stored in ice were treated with mercuric chloride (50-100 µM; positive control for inhibition) or with the various compounds usually at a concentration of 150 µM. Stock solutions of compounds were in 100% ethanol (for stripped erythrocyte membrane experiments) and in 100% DMSO (for proteoliposome experiments). An inwardly directed osmotic gradient (hyperosmotic shock) was created by mixing the vesicles maintained in Buffer A (50 mM sodium phosphate buffer pH, 100 mM NaCl, 1 mM EDTA, 0.025% sodium azide) with an equal volume of 200 mM mannitol. On the other hand, vesicles preincubated with 200 mM mannitol were mixed with Buffer A to create an outwardly

IC50	Compound
3.9 µM	Nc1nc(NC[C@H]2CC[C@H](CNS(=O)(=O)c3ccc4ccccc4c3)CC2)nc2ccccc12
2.7 µM	Nc1nc(NC[C@H]2CC[C@H](CNS(=O)(=O)c3cccc4ccccc34)CC2)nc2ccccc12 [CGP 71683]

Continued, compound first:

Compound	IC50
Nc1nc(NC[C@H]2CC[C@H](CNS(=O)(=O)c3cccc4c(Cl)cccc34)CC2)nc2ccccc12 [5-chloro-N-{[(1r,4r)-4-{[(4-aminoquinazolin-2-yl)amino]methyl}cyclohexyl]methyl}naphthalene-1-sulfonamide (Compound 3)]	5.8 µM
NCC1Cc2cc(F)cc(-c3ccc(Cl)cc3Cl)c2O1 (stereo unspecified) [[7-(2,4-dichlorophenyl)-5-fluoro-2,3-dihydro-1-benzofuran-2-yl]methanamine (Compound 5)]	15.2 µM
CNCC1Cc2cc(F)cc(-c3ccc(Cl)cc3Cl)c2O1 (stereo unspecified) [{[7-(2,4-dichlorophenyl)-5-fluoro-2,3-dihydro-1-benzofuran-2-yl]methyl}(methyl)amine (Compound 4)]	9.8 µM
CNCC1Cc2cc(F)cc(-c3c(Cl)cccc3Cl)c2O1 (stereo unspecified) [{[7-(2,6-dichlorophenyl)-5-fluoro-2,3-dihydro-1-benzofuran-2-yl]methyl}(methyl)amine (Compound 6)]	29.4 µM
